Measured values taken from patent US10722501B2 (BAYER AKTIENGESELLSCHAFT, priority 2016, dated 2020).

target: T1, recombinant full-length human prolyl endopeptidase (PREP) (Homo sapiens, UniProt P48147); experiment: Biochemical human prolyl endopeptidase (PREP) assay with fluorescently labelled substrate; details: substrate Z-Gly-Pro-AMC 50 μM, 32° C., 60 min; some as mean values from multiple independent determinations
T1 construct: To recombinant full-length human prolyl endopeptidase (PREP, R&D-Systems, 4308-SE); purchased R&D-Systems 4308-SE
T1 sequence (P48147 1-710): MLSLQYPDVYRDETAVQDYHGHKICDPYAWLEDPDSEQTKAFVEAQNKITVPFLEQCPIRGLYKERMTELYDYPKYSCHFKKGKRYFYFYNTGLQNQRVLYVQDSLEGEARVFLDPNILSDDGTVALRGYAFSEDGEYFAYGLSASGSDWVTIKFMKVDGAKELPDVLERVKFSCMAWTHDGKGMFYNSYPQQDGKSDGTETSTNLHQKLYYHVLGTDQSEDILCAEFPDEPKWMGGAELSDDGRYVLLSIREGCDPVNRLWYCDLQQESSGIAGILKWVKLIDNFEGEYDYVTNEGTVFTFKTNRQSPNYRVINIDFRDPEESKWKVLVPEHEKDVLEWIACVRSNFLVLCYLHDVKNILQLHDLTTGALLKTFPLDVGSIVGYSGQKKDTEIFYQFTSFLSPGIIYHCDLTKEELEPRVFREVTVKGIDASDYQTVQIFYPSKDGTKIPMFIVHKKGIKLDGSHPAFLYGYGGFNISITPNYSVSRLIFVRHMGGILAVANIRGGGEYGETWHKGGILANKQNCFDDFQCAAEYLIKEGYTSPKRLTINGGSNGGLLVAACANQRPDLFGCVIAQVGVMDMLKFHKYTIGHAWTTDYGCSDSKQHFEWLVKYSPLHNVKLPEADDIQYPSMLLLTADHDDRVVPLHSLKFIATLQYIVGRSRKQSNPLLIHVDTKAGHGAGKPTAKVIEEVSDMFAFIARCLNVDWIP
Outline: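 Initial rates of fluorescence increase from 50 μM Z-Gly-Pro-AMC cleavage (ex 360/em 465 nm, 60 min, 32° C) give percent PREP activity versus no-compound control, and IC50 is interpolated. Enzyme used at 0.4 nM (final, example) in Tris pH 7.5 with EDTA, GSH, BSA and Brij-35; compounds span 1 nM to 30 μM.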

| SMILES | IC50 [nM] |
| --- | --- |
| O=C([C@@H]1CCCc2nn(Cc3nccc(C(F)(F)F)c3Cl)c(=O)n21)N1CCC(F)(F)C1 [Example 387, (5S)-2-{[3-Chloro-4-(trifluoromethyl)pyridin-2-yl]methyl}-5-[(3,3-difluoropyrrolidin-1-yl)carbonyl]-5,6,7,8-tetrahydro[1,2,4]triazolo[4,3-a]pyridin-3(2H)-one] | 3.4 |
| O=C(C1C(C(F)(F)F)CCc2nn(Cc3ncc(Cl)cc3F)c(=O)n21)N1CC(F)C1 (single isomer, unassigned) [Example 309, (5RS,6RS)-2-[(5-Chloro-3-fluoropyridin-2-yl)methyl]-5-[(3-fluoroazetidin-1-yl)carbonyl]-6-(trifluoromethyl)-5,6,7,8-tetrahydro[1,2,4]triazolo[4,3-a]pyridin-3(2H)-one] | 64 |
| O=C([C@@H]1CCc2nn(Cc3cccc(C(F)(F)F)c3)c(=O)n21)N1CCCC1 [Example 55, (5S)-5-(Pyrrolidin-1-ylcarbonyl)-2-[3-(trifluoromethyl)benzyl]-2,5,6,7-tetrahydro-3H-pyrrolo[2,1-c][1,2,4]triazol-3-one] | 1.4 |
| O=C(C1CCCc2nn(Cc3cccc(C(F)(F)F)c3F)c(=O)n21)N1CCCC1 (racemic) [Example 71] | 0.71 |
| Cc1cc(Cn2nc3n(c2=O)C(C(=O)N2CCCC2)CCC3)on1 (racemic) [Example 13, (5RS)-2-[(3-Methyl-1,2-oxazol-5-yl)methyl]-5-(pyrrolidin-1-ylcarbonyl)-5,6,7,8-tetrahydro[1,2,4]triazolo[4,3-a]pyridin-3(2H)-one] | 5.4 |
| CC1CCC(C(=O)N2CC(F)C2)n2c1nn(Cc1ccc(C(F)(F)F)nc1)c2=O (racemic) [Example 328, (5RS,8RS)-5-[(3-Fluoroazetidin-1-yl)carbonyl]-8-methyl-2-{[6-(trifluoromethyl)pyridin-3-yl]methyl}-5,6,7,8-tetrahydro[1,2,4]triazolo[4,3-a]pyridin-3(2H)-one] | 4.1 |
| O=C(C1CC(C(F)(F)F)Cc2nn(Cc3ccc(Cl)nc3)c(=O)n21)N1CC[C@H](F)C1 (mixture of isomers) [Example 241, (5RS,7RS)-2-[(6-Chloropyridin-3-yl)methyl]-5-{[(3S)-3-fluoropyrrolidin-1-yl]carbonyl}-7-(trifluoromethyl)-5,6,7,8-tetrahydro[1,2,4]triazolo[4,3-a]pyridin-3(2H)-one] | 5.8 |
| O=C(C1C(C(F)(F)F)CCc2nn(Cc3ncc(Cl)cc3Cl)c(=O)n21)N1CC[C@H](F)C1 (single isomer, unassigned) [Example 283] | 6.2 |
| Cc1noc(-c2ccc(Cn3nc4n(c3=O)C(C(=O)N3CCCC3)CCC4)cc2)n1 (racemic) [Example 9, (5RS)-2-[4-(3-Methyl-1,2,4-oxadiazol-5-yl)benzyl]-5-(pyrrolidin-1-ylcarbonyl)-5,6,7,8-tetrahydro[1,2,4]triazolo[4,3-a]pyridin-3(2H)-one] | 39 |
| O=C(C1CCc2nn(Cc3ccc(Cl)nc3)c(=O)n21)N1CCC(F)(F)C1 (racemic) [Example 166, (5RS)-2-[(6-Chloropyridin-3-yl)methyl]-5-[(3,3-difluoropyrrolidin-1-yl)carbonyl]-2,5,6,7-tetrahydro-3H-pyrrolo[2,1-c][1,2,4]triazol-3-one] | 22 |
| O=C(C1CC(C(F)(F)F)Cc2nn(Cc3ccc(Cl)nc3)c(=O)n21)N1C[C@@H](F)[C@@H](F)C1 (single isomer, unassigned) [Example 250] | 0.92 |
| O=C(C1CCc2nn(Cc3ccc(F)c(Cl)c3)c(=O)n21)N1CC(F)C1 (racemic) [Example 171, (5RS)-2-(3-Chloro-4-fluorobenzyl)-5-[(3-fluoroazetidin-1-yl)carbonyl]-2,5,6,7-tetrahydro-3H-pyrrolo[2,1-c][1,2,4]triazol-3-one] | 6.3 |
| O=C([C@@H]1CCCc2nn(CC3CC3)c(=O)n21)N1C[C@@H](F)[C@@H](F)C1 [Example 184, (5S)-2-(Cyclopropylmethyl)-5-{[(3R,4S)-3,4-difluoropyrrolidin-1-yl]carbonyl}-5,6,7,8-tetrahydro[1,2,4]triazolo[4,3-a]pyridin-3(2H)-one] | 4.5 |
| Cc1ccc(Cn2nc3n(c2=O)C(C(=O)N2CCS(=O)(=O)C2)CCC3)cc1 (single isomer, unassigned) [Example 142, (5RS)-5-[(1,1-Dioxido-1,3-thiazolidin-3-yl)carbonyl]-2-(4-methylbenzyl)-5,6,7,8-tetrahydro[1,2,4]triazolo[4,3-a]pyridin-3(2H)-one] | 2.55 |
| O=C([C@@H]1CCCc2nn(Cc3ccc(Cl)cn3)c(=O)n21)N1CC(F)C1 [Example 379, (5S)-2-[(5-Chloropyridin-2-yl)methyl]-5-[(3-fluoroazetidin-1-yl)carbonyl]-5,6,7,8-tetrahydro[1,2,4]triazolo[4,3-a]pyridin-3(2H)-one] | 2.5 |
| O=C(C1CC(C(F)(F)F)Cc2nn(Cc3ccc(Cl)nc3)c(=O)n21)N1C[C@@H](F)[C@@H](F)C1 (single isomer, unassigned) [Example 248] | 12 |

Further lines, results first:

| IC50 [nM] | SMILES |
| --- | --- |
| 3.6 | O=C([C@@H]1CCCc2nn(Cc3ncc(Cl)cc3F)c(=O)n21)N1CCC(F)(F)C1 [Example 406, (5S)-2-[(5-Chloro-3-fluoropyridin-2-yl)methyl]-5-[(3,3-difluoropyrrolidin-1-yl)carbonyl]-5,6,7,8-tetrahydro[1,2,4]triazolo[4,3-a]pyridin-3(2H)-one] |
| 0.95 | Cc1ccc(C(F)(F)Cn2nc3n(c2=O)[C@H](C(=O)N2CC[C@H](F)C2)CCC3)cc1 [Example 517, (5S)-2-[2,2-Difluoro-2-(4-methylphenyl)ethyl]-5-{[(3S)-3-fluoropyrrolidin-1-yl]carbonyl}-5,6,7,8-tetrahydro[1,2,4]triazolo[4,3-a]pyridin-3(2H)-one] |
| 0.22 | O=C([C@@H]1CCCc2nn(CC3(c4ccc(F)cc4F)CC3)c(=O)n21)N1CCCC1 [Example 530, (5S)-2-{[1-(2,4-Difluorophenyl)cyclopropyl]methyl}-5-(pyrrolidin-1-ylcarbonyl)-5,6,7,8-tetrahydro[1,2,4]triazolo[4,3-a]pyridin-3(2H)-one] |
| 1.2 | O=C([C@@H]1CCCc2nn(Cc3cncc(Br)c3)c(=O)n21)N1C[C@@H](F)[C@@H](F)C1 [Example 506, (5S)-2-[(5-Bromopyridin-3-yl)methyl]-5-{[(3R,4S)-3,4-difluoropyrrolidin-1-yl]carbonyl}-5,6,7,8-tetrahydro[1,2,4]triazolo[4,3-a]pyridin-3(2H)-one] |
| 4.3 | O=C([C@@H]1CCCc2nn(Cc3ccnc(C(F)(F)F)c3F)c(=O)n21)N1CCSC1 [Example 485, (5S)-2-{[3-Fluoro-2-(trifluoromethyl)pyridin-4-yl]methyl}-5-(1,3-thiazolidin-3-ylcarbonyl)-5,6,7,8-tetrahydro[1,2,4]triazolo[4,3-a]pyridin-3(2H)-one] |
| 1.1 | O=C([C@@H]1CCCc2nn(Cc3ccc(C(F)(F)F)nc3)c(=O)n21)N1CC[C@H](F)C1 [Example 427, (5S)-5-{[(3S)-3-Fluoropyrrolidin-1-yl]carbonyl}-2-{[6-(trifluoromethyl)pyridin-3-yl]methyl}-5,6,7,8-tetrahydro[1,2,4]triazolo[4,3-a]pyridin-3(2H)-one] |
| 0.295 | O=C([C@@H]1CCCc2nn(Cc3ccnc(C(F)(F)F)c3F)c(=O)n21)N1CC[C@H](F)C1 [Example 484, (5S)-5-{[(3S)-3-Fluoropyrrolidin-1-yl]carbonyl}-2-{[3-fluoro-2-(trifluoromethyl)pyridin-4-yl]methyl}-5,6,7,8-tetrahydro[1,2,4]triazolo[4,3-a]pyridin-3(2H)-one] |
| 2.3 | O=C([C@@H]1CCCc2nn(Cc3cncc(C(F)(F)F)c3)c(=O)n21)N1C[C@@H](F)[C@@H](F)C1 [Example 578, (5S)-5-{[(3R,4S)-3,4-Difluoropyrrolidin-1-yl]carbonyl}-2-{[5-(trifluoromethyl)pyridin-3-yl]methyl}-5,6,7,8-tetrahydro[1,2,4]triazolo[4,3-a]pyridin-3(2H)-one] |
| 0.62 | O=C([C@@H]1CCCc2nn(Cc3ncc(Cl)cc3F)c(=O)n21)N1CC[C@H](F)C1 [Example 568, (5S)-2-[(5-Chloro-3-fluoropyridin-2-yl)methyl]-5-{[(3S)-3-fluoropyrrolidin-1-yl]carbonyl}-5,6,7,8-tetrahydro[1,2,4]triazolo[4,3-a]pyridin-3(2H)-one] |
| 6 | O=C([C@@H]1CCCc2nn(Cc3ncccc3Cl)c(=O)n21)N1CC(F)C1 [Example 396, (5S)-2-[(3-Chloropyridin-2-yl)methyl]-5-[(3-fluoroazetidin-1-yl)carbonyl]-5,6,7,8-tetrahydro[1,2,4]triazolo[4,3-a]pyridin-3(2H)-one] |
| 0.57 | O=C(C1CC(C(F)(F)F)Cc2nn(Cc3ncc(F)cc3F)c(=O)n21)N1CC[C@H](F)C1 (single isomer, unassigned) [Example 570] |
